Data: the supplement of paper PMC10307832

How the values were obtained:
Assay in all cases: relative viability (nuclei count vs DMSO), 5 days (fraction); higher = more cells survive
Apatinib + Navitoclax = compound: N#CC1(c2ccc(NC(=O)c3cccnc3NCc3ccncc3)cc2)CCCC1 [Apatinib] + CC1(C)CCC(c2ccc(Cl)cc2)=C(CN2CCN(c3ccc(C(=O)NS(=O)(=O)c4ccc(N[C@H](CCN5CCOCC5)CSc5ccccc5)c(S(=O)(=O)C(F)(F)F)c4)cc3)CC2)C1 [Navitoclax] (partner 0.5 µM)
Outline: (§1)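 Each reported value is a median over duplicate plates. It expresses relative viability: treated-well nuclei count divided by vehicle-well nuclei count. Lung cancer cell lines in 1536-well plates were dosed by pin tool a day after seeding, alone with one drug or with a fixed anchor-drug dose plus five library-drug doses (not always all listed) in √10 steps, and nuclei were counted after 5 days.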

Metformin + Phenformin = compound: CN(C)C(=N)NC(=N)N [Metformin] + N=C(N)NC(=N)NCCc1ccccc1 [Phenformin] (partner 250 µM)
Outline: as §1

Metformin + OSI-027 = compound: CN(C)C(=N)NC(=N)N [Metformin] + COc1cccc2cc(-c3nc([C@H]4CC[C@H](C(=O)O)CC4)n4ncnc(N)c34)[nH]c12 [OSI-027] (partner 0.5 µM)
Outline: as §1

Metformin + Vorinostat = compound: CN(C)C(=N)NC(=N)N [Metformin] + O=C(CCCCCCC(=O)Nc1ccccc1)NO [Vorinostat] (partner 1 µM)
Outline: as §1

## NCI-H460
Apatinib + Navitoclax; first compound 0.08 µM
  relative viability: 1.1
Apatinib + Navitoclax; first compound 0.253 µM
  relative viability: 1.14
Apatinib + Navitoclax; first compound 0.8 µM
  relative viability: 1.03
Apatinib + Navitoclax; first compound 2.53 µM
  relative viability: 1.06
Apatinib + Navitoclax; first compound 8 µM
  relative viability: 1.05
Metformin + Phenformin; first compound 10 µM
  relative viability: 0.426
Metformin + Phenformin; first compound 31.62 µM
  relative viability: 0.541
Metformin + Phenformin; first compound 100 µM
  relative viability: 0.516
Metformin + Phenformin; first compound 316.23 µM
  relative viability: 0.509
Metformin + Phenformin; first compound 1000 µM
  relative viability: 0.523
Metformin + OSI-027; first compound 10 µM
  relative viability: 0.685
Metformin + OSI-027; first compound 31.62 µM
  relative viability: 0.664
Metformin + OSI-027; first compound 100 µM
  relative viability: 0.547
Metformin + OSI-027; first compound 316.23 µM
  relative viability: 0.49
Metformin + OSI-027; first compound 1000 µM
  relative viability: 0.762
Metformin + Vorinostat; first compound 31.62 µM
  relative viability: 0.667
Metformin + Vorinostat; first compound 100 µM
  relative viability: 0.542
Metformin + Vorinostat; first compound 316.23 µM
  relative viability: 0.581
Metformin + Vorinostat; first compound 1000 µM
  relative viability: 0.659
